Reference: patent US6875748B2, “Compositions and methods for in vivo delivery of polynucleotide-based therapeutics” (Vical Incorporated, priority 2000, dated 2005)
Where two headings read alike, the source gives them in different places.

Assays:
mouse quadriceps muscle [1] = test: Luciferase expression in mouse quadriceps muscle 7 days after i.m. injection of plasmid VR1223 in salt solutions; type: in vivo; design: lux: unit: ng/muscle; settings: for lux: 7-day luciferase expression, VR1223; for ng Lux/Muscle: 50 μg VR1223 in 50 μl; for ng Lux/Muscle / Fold Saline: salts at 150 mM, day 7; for luciferase expression compared with saline (words): 150 mM solutions; for Fold Saline: relative to saline
pH of the salt solutions = type: physicochemical
[2] = Osmolarity of the salt solutions; type: physicochemical; settings: for Osm: 150 mM unless otherwise indicated
mouse quadriceps muscle [3] = test: Luciferase expression in mouse quadriceps muscle after i.m. injection of plasmid VR1255 with auxiliary agents; settings: for ability to enhance in vivo expression relative to identical composition without the compound: mouse; for luciferase expression versus 150 mM sodium phosphate alone: day 7
[4] = 150 mM unless otherwise indicated

| Molecule | lux (mouse quadriceps muscle [1]; Table III-A) | lux (mouse quadriceps muscle [1]; Table III-B) | pH (pH of the salt solutions; [4]) | Osm [2] [mmol/kg] | ability to enhance in vivo expression relative to identical composition without the compound (mouse quadriceps muscle [3]) | ng Lux/Muscle (mouse quadriceps muscle [1]) [ng/Muscle] | luciferase expression compared with saline (words) (mouse quadriceps muscle [1]; VR1223, day 7) | Fold Saline (mouse quadriceps muscle [1]) [Fold] | further results |
| --- | --- | --- | --- | --- | --- | --- | --- | --- | --- |
| O=P([O-])([O-])OP(=O)([O-])[O-].[Na+].[Na+].[Na+].[Na+] [Sodium Pyrophosphate] | 3 | 3 | 9.0 | 363 |  |  |  |  |  |
| PEG-40 Stearate [MYRJ 52] |  |  |  |  | no ability to enhance |  |  |  |  |
| CCCCCCCCCCCCO[C@@H]1O[C@H](CO)[C@@H](O[C@H]2O[C@H](CO)[C@@H](O)[C@H](O)[C@H]2O)[C@H](O)[C@H]1O [n-Dodecylmaltoside, n-dodecylmaltoside] |  |  |  |  | no ability to enhance |  |  |  |  |
| Actin |  |  |  |  | no ability to enhance |  |  |  |  |
| OCc1ccccc1 [benzyl alcohol] |  |  |  |  | no ability to enhance |  |  |  |  |
| (octyl phenoxy) polyethoxyethanol [IGEPAL CA 630®] |  |  |  |  |  |  |  |  | luciferase expression versus 150 mM sodium phosphate alone (mouse quadriceps muscle [3]): significantly increased expression |
| O=C(O)CN(CCN(CC(=O)O)CC(=O)O)CC(=O)O [EDTA, ethylenediamine tetraacetic acid] |  |  |  |  |  |  |  |  | luciferase expression versus 150 mM sodium phosphate alone (mouse quadriceps muscle [3]): significantly increased expression |
| C[C@H](CCC(=O)NCCC[N+](C)(C)CCCS(=O)(=O)[O-])[C@H]1CC[C@H]2[C@@H]3[C@H](O)C[C@@H]4C[C@H](O)CC[C@]4(C)[C@H]3C[C@H](O)[C@]12C [CHAPS, 3[(3-Cholamidopropyl)dimethylammonio]-1-propanesulfonate] |  |  |  |  | no ability to enhance |  |  |  |  |
| [Cl][Fe][Cl] [Ferrous Chloride] | 0.0 | 0.0 | 5.0 | 362 |  | 0.0 | no ability to enhance | <0.1 |  |
| CCCCCCC(=O)N(C)C[C@H](O)[C@@H](O)[C@H](O)[C@H](O)CO [MEGA 7, heptanoyl-N-methyl-glucamide] |  |  |  |  | no ability to enhance |  |  |  |  |
| [Ca+2].[Cl-].[Cl-] [Calcium Chloride] | 0.3 | 0.3 | 5.5 | 362 |  | 0.3 | no ability to enhance | <0.1 |  |
| OC[C@H]1O[C@H](OC[C@H]2O[C@H](OC[C@H]3O[C@H](O[C@]4(CO)O[C@H](CO)[C@@H](O)[C@@H]4O)[C@H](O)[C@@H](O)[C@@H]3O)[C@H](O)[C@@H](O)[C@H]2O)[C@H](O)[C@@H](O)[C@H]1O [Stachyose, stachyose] |  |  |  |  |  |  |  |  | luciferase expression versus 150 mM sodium phosphate alone (mouse quadriceps muscle [3]): significantly increased expression |
| O=C([O-])C(=O)[O-].[Na+].[Na+] [Sodium Oxalate] | 15 | 15 | 6.5 | 346 |  | 15 | inhibited luciferase expression | <0.1 | luciferase expression compared with saline (words) (mouse quadriceps muscle [1]; VR1223, day 7, listed as 150 mM sodium oxalate): no ability to enhance |
| Calcium Phosphate | 12 | 12 | 6.0 | 36 |  | 12 | no ability to enhance | 0.1 |  |
| CCCCCCCC(=O)N(C)C[C@H](O)[C@@H](O)[C@H](O)[C@H](O)CO [MEGA 8, octanyol-N-methyl-glucamide] |  |  |  |  | no ability to enhance |  |  |  |  |
| CCCCCCCCO[C@@H]1O[C@H](CO)[C@@H](O)[C@H](O)[C@H]1O [n-octylglucoside] |  |  |  |  | no ability to enhance |  |  |  |  |
| CCCCCCCCCCCCCCCC[N+](C)(C)CCCS(=O)(=O)[O-] [Zwittergent, n-hexadecyl-N,N-dimethyl-3-ammonio-1-propanesulfonate] |  |  |  |  | no ability to enhance |  |  |  |  |
| polyoxyethylene sorbitan monolaurate [Tween 20] |  |  |  |  |  |  |  |  | luciferase expression versus 150 mM sodium phosphate alone (mouse quadriceps muscle [3]): significantly increased expression |
| [Cl-].[Cl-].[Mg+2] [Magnesium Chloride] | 1 | 1 | 5.5 | 360 |  | 1 | no ability to enhance | <0.1 |  |
| O=P(O)(O)O [Potassium Phosphate] | 449 | 449 | 7.5 | 323 |  | 449 | stimulated expression just as well as solution of 150 mM sodium phosphate | 3.8 |  |

| Molecule | lux (mouse quadriceps muscle [1]; Table III-A) | lux (mouse quadriceps muscle [1]; Table III-B) | pH (pH of the salt solutions; [4]) | Osm [2] [mmol/kg] | ability to enhance in vivo expression relative to identical composition without the compound (mouse quadriceps muscle [3]) | ng Lux/Muscle (mouse quadriceps muscle [1]) [ng/Muscle] | luciferase expression compared with saline (words) (mouse quadriceps muscle [1]; VR1223, day 7) | Fold Saline (mouse quadriceps muscle [1]) [Fold] | further results |
| --- | --- | --- | --- | --- | --- | --- | --- | --- | --- |
| polyoxyethylene sorbitan monooleate [Tween 80] |  |  |  |  |  |  |  |  | luciferase expression versus 150 mM sodium phosphate alone (mouse quadriceps muscle [3]): significantly increased expression |
| O=C([O-])CC(O)(CC(=O)[O-])C(=O)[O-].[Na+].[Na+].[Na+] [Sodium Citrate] | 108 | 108 | 7.5 | 394 |  | 90 |  | <0.1 | luciferase expression compared with saline (words) (mouse quadriceps muscle [1]; VR1223, day 7, listed as 150 mM sodium citrate): no ability to enhance; luciferase expression compared with saline (words) (mouse quadriceps muscle [1]; VR1223, day 7, listed as Sodium citrate): same luciferase expression as saline; luciferase expression compared with saline (words) (mouse quadriceps muscle [1]; VR1223, day 7, listed as sodium citrate): the same as with saline; lux (mouse quadriceps muscle [1]; Table III-A, listed as 50 mM Sodium Citrate): 83; lux (mouse quadriceps muscle [1]; Table III-B, listed as 50 mM Sodium Citrate): 83; osmolarity [2]: 394 mmol/kg; Osm ([2]; listed as 50 mM Sodium Citrate): 164 mmol/kg |
| O=P([O-])(O)O.[Na+] [Sodium monobasic, NaH2PO4] | 198 | 198 | 5.5 | 277 |  | 198 | only slightly stimulated over saline | 1.7 |  |
| O=P([O-])([O-])O.[Na+].[Na+] [Sodium dibasic, Na2HPO4] | 282 | 282 | 8.0 | 357 |  | 282 | only slightly stimulated over saline | 2.4 |  |
| octyl phenol ethylene oxide condensate with about 7-8 ethylene oxide units [Triton X-114] |  |  |  |  |  |  |  |  | luciferase expression versus 150 mM sodium phosphate alone (mouse quadriceps muscle [3]): significantly increased expression |
| CC(=O)C(=O)[O-].[Na+] [Sodium Pyruvate] | 364 | 364 | 6.0 | 271 |  | 364 | increased luciferase expression compared with saline | 3.1 |  |
| O=C([O-])O.[Na+] [Sodium Bicarbonate] | 330 | 330 | 9.0 | 727 |  | 330 | increased luciferase expression compared with saline | 2.8 | luciferase expression, fold over saline (mouse quadriceps muscle [1]; VR1223, day 7): 2.8 fold; pH (pH of the salt solutions): 9.0 |
| Macrogol-50 stearate [MYRJ 53] |  |  |  |  | no ability to enhance |  |  |  |  |
| polysorbate 40 [Tween-40®] |  |  |  |  | no ability to enhance |  |  |  |  |
| CCCCCCCCC(=O)N(C)C[C@H](O)[C@@H](O)[C@H](O)[C@H](O)CO [MEGA 9, nonanoyl-N-methyl-glucamide] |  |  |  |  | no ability to enhance |  |  |  |  |
| sorbitan monolaurate [SPAN 20] |  |  |  |  | no ability to enhance |  |  |  |  |
| [Cl-].[Cl-].[Zn+2] [Zinc Chloride] | 0.1 | 0.1 | 5.0 | 358 |  | 0.1 | no ability to enhance | <0.1 |  |
| O=C(O)CN(CCOCCOCCN(CC(=O)O)CC(=O)O)CC(=O)O [EGTA] |  |  |  |  | no ability to enhance |  |  |  |  |
| octyl phenol ethylene oxide condensate with about 9 ethylene oxide units [Nonidet P40] |  |  |  |  |  |  |  |  | luciferase expression versus 150 mM sodium phosphate alone (mouse quadriceps muscle [3]): significantly increased expression |
| polyoxyethylene 10 cetyl ether |  |  |  |  | no ability to enhance |  |  |  |  |
| [Cl-].[K+] [Potassium Chloride] | 124 | 124 | 5.5 | 280 |  | 124 | no ability to enhance | 1.0 |  |
| CCCCCCCCCCCCOS(=O)(=O)[O-].[Na+] [SDS, sodium dodecyl sulfate] |  |  |  |  |  |  |  |  | luciferase expression versus 150 mM sodium phosphate alone (mouse quadriceps muscle [3]): significantly increased expression |
| C[S+](C)[O-] [DMSO, dimethylsulfoxide] |  |  |  |  |  |  |  |  | luciferase expression versus 150 mM sodium phosphate alone (mouse quadriceps muscle [3]): significantly increased expression |
| polyoxyethylene 20 stearyl ether |  |  |  |  | no ability to enhance |  |  |  |  |
